Measurements reported in US11957759B1, “Rapidly accelerated fibrosarcoma (RAF) degrading compounds and associated methods of use” (Arvinas Operations, Inc., priority 2022, dated 2024).

What was measured:
B-RAF V600E = molecular target: T1, B-RAF V600E (Homo sapiens, UniProt P15056, V600E); test: Target protein degradation, assay C: T-Rex 293 cells, HA-BRAF_V600E, 384 well format; assay type: cell-based; conditions: T-Rex 293 HA-BRAF_V600E cells, 24 hours, Examples 83-269; for DC50: Assay C; for Dmax: T-REx-293, Assay C
T1 construct: expressed in transfected cells; host or cells: T-Rex 293 cells (Invitrogen #R71007)
Method in brief: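 T-Rex 293 cells stably expressing doxycycline-induced (1 ng/mL) HA-BRAF V600E were treated 24 h at 37 °C with compound (300 nM–5 pM, 11 points, 0.5% DMSO). HA immunofluorescence was quantified by high-content imaging to give DC50 and Dmax (% of control); nuclei counts versus DMSO gauged toxicity.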

B-RAF G466V = molecular target: T2, B-RAF G466V (Homo sapiens, UniProt P15056, G466V); test: Target protein degradation, assay D: T-Rex 293 cells, HA-BRAF_G466V, 384 well format; assay type: cell-based; conditions: T-Rex 293 HA-BRAF_G466V cells, 24 hours, Examples 83-269; for DC50: Assay D; for Dmax: T-REx-293, Assay D
T2 construct: expressed in transfected cells; host or cells: T-Rex 293 cells (Invitrogen #R71007)
Method in brief: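 T-Rex 293 cells stably expressing doxycycline-induced (1 ng/mL) HA-BRAF G466V treated 24 h at 37 °C with PROTACs, 11-point 1:3 dilution, 300 nM to 5 pM final, 0.5% DMSO. Fixed cells immunostained for HA and imaged by high-content microscopy; DC50 and Dmax (% of control) derived, toxicity from nuclei counts versus DMSO.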

T1 sequence (P15056 whole entry V600E): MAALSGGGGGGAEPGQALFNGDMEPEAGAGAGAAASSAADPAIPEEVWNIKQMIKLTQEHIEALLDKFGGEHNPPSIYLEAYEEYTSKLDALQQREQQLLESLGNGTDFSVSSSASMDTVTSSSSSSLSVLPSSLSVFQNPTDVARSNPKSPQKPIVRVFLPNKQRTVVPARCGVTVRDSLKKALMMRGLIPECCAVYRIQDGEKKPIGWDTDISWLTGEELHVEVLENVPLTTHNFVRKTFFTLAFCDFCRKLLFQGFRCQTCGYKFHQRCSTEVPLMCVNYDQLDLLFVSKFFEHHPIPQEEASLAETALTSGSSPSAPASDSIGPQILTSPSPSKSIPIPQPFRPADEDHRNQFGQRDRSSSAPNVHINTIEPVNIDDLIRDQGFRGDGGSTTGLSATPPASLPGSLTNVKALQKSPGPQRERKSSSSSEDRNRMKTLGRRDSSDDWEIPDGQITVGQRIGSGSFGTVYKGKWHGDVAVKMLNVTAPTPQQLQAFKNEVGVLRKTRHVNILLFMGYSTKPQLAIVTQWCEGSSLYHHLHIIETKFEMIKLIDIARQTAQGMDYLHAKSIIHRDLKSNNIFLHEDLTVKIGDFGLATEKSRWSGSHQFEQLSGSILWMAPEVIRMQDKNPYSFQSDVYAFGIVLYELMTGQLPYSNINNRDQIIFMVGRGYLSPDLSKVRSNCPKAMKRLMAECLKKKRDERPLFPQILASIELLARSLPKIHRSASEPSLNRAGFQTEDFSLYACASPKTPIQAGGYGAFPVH
T2 sequence (P15056 whole entry G466V): as the sequence (P15056 whole entry V600E) above, with G466V, E600V counted along it

## N#Cc1c(NS(=O)(=O)N2CC[C@@H](F)C2)ccc(F)c1Oc1ccc2ncn(-c3ccc(N4CCN(CC5CCN(c6ccc(C7CCC(=O)NC7=O)cn6)CC5)CC4)cc3)c(=O)c2c1 (stereo partly drawn) [Example 91, (3R)-N-{2-cyano-3-[(3-(4-[4-({1-[5-(2,6-dioxopiperidin-3-yl)pyridin-2-yl]piperidin-4-yl}methyl)piperazin-1-yl]phenyl}-4-oxo-3,4-dihydroquinazolin-6-yl)oxy]-4-fluorophenyl}-3-fluoropyrrolidine-1-sulfonamide]
B-RAF V600E
  DC50: 5 to 50 nM
  Dmax: 35 to 70%
B-RAF G466V
  DC50: 1 to 10 nM
  Dmax: ≤ 35%

## N#Cc1c(NS(=O)(=O)N2CC[C@@H](F)C2)ccc(F)c1Oc1ccc2ncn(-c3ccc(N4CCN(CC5CCN(c6ccc7c(c6)CN(C6CCC(=O)NC6=O)C7=O)CC5)CC4)nn3)c(=O)c2c1 (stereo partly drawn) [Example 92, (3R)-N-{2-cyano-3-[(3-{6-[4-({1-[2-(2,6-dioxopiperidin-3-yl)-1-oxo-2,3-dihydro-1H-isoindol-5-yl]piperidin-4-yl}methyl)piperazin-1-yl]pyridazin-3-yl}-4-oxo-3,4-dihydroquinazolin-6-yl)oxy]-4-fluorophenyl}-3-fluoropyrrolidine-1-sulfonamide]
B-RAF V600E
  DC50: 50 to 500 nM
  Dmax: ≤ 35%
B-RAF G466V
  DC50: 10 to 30 nM
  Dmax: ≤ 35%

## N#Cc1c(NS(=O)(=O)N2CC[C@@H](F)C2)ccc(F)c1Oc1ccc2ncn(-c3cccc(N4CCCC(CN5CCN(c6ccc7c(c6)CN([C@H]6CCC(=O)NC6=O)C7=O)CC5)C4)c3)c(=O)c2c1 (stereo partly drawn) [Example 93, (3R)-N-(2-cyano-3-{[3-(3-{3-[(4-{2-[(3S)-2,6-dioxopiperidin-3-yl]-1-oxo-2,3-dihydro-1H-isoindol-5-yl}piperazin-1-yl)methyl]piperidin-1-yl}phenyl)-4-oxo-3,4-dihydroquinazolin-6-yl]oxy}-4-fluorophenyl)-3-fluoropyrrolidine-1-sulfonamide]
B-RAF V600E
  DC50: 50 to 500 nM
  Dmax: 35 to 70%
B-RAF G466V
  DC50: 1 to 10 nM
  Dmax: ≤ 35%

## Cc1cc(N2CCC(CN3CCN(c4ccc(-n5cnc6ccc(Oc7c(F)ccc(NS(=O)(=O)N8CC[C@@H](F)C8)c7C#N)cc6c5=O)cc4)CC3)CC2)c(F)c2c1C(=O)N(C1CCC(=O)NC1=O)C2 (stereo partly drawn) [Example 94, (3R)-N-{2-cyano-3-[(3-(4-[4-({1-[2-(2,6-dioxopiperidin-3-yl)-4-fluoro-7-methyl-1-oxo-2,3-dihydro-1H-isoindol-5-yl]piperidin-4-yl}methyl)piperazin-1-yl]phenyl}-4-oxo-3,4-dihydroquinazolin-6-yl)oxy]-4-fluorophenyl}-3-fluoropyrrolidine-1-sulfonamide]
B-RAF V600E
  DC50: 5 to 50 nM
  Dmax: 35 to 70%
B-RAF G466V
  DC50: 1 to 10 nM
  Dmax: ≤ 35%

## N#Cc1c(NS(=O)(=O)N2CC[C@@H](F)C2)ccc(F)c1Oc1ccc2ncn(-c3ccc(N4CCN(CC5CCN(c6ccc(C7CCC(=O)NC7=O)nc6)CC5)CC4)cc3)c(=O)c2c1 (stereo partly drawn) [Example 95, (3R)-N-{2-cyano-3-[(3-{4-[4-({1-[6-(2,6-dioxopiperidin-3-yl)pyridin-3-yl]piperidin-4-yl}methyl)piperazin-1-yl]phenyl}-4-oxo-3,4-dihydroquinazolin-6-yl)oxy]-4-fluorophenyl}-3-fluoropyrrolidine-1-sulfonamide]
B-RAF V600E
  DC50: 5 to 50 nM
  Dmax: 35 to 70%
B-RAF G466V
  DC50: 1 to 10 nM
  Dmax: ≤ 35%

## N#Cc1c(NS(=O)(=O)N2CC[C@@H](F)C2)ccc(F)c1Oc1ccc2ncn(-c3ccc(N4CCN(CC5CCN(c6ccc(N7CCC(=O)NC7=O)cc6)CC5)CC4)cc3)c(=O)c2c1 [Example 96, (3R)-N-{2-cyano-3-[(3-(4-[4-({1-[4-(2,4-dioxo-1,3-diazinan-1-yl)phenyl]piperidin-4-yl}methyl)piperazin-1-yl]phenyl}-4-oxo-3,4-dihydroquinazolin-6-yl)oxy]-4-fluorophenyl}-3-fluoropyrrolidine-1-sulfonamide]
B-RAF V600E
  DC50: 5 to 50 nM
  Dmax: 35 to 70%
B-RAF G466V
  DC50: 1 to 10 nM
  Dmax: ≤ 35%

## N#Cc1c(NS(=O)(=O)N2CC[C@@H](F)C2)ccc(F)c1Oc1ccc2ncn(-c3ccn(C4CC5(C4)CN(CC4CCN(c6ccc7c(c6)CN(C6CCC(=O)NC6=O)C7=O)CC4)C5)n3)c(=O)c2c1 (stereo partly drawn) [Example 97, (3R)-N-{2-cyano-3-[(3-{1-[2-({1-[2-(2,6-dioxopiperidin-3-yl)-1-oxo-2,3-dihydro-1H-isoindol-5-yl]piperidin-4-yl}methyl)-2-azaspiro[3.3]heptan-6-yl]-1H-pyrazol-3-yl}-4-oxo-3,4-dihydroquinazolin-6-yl)oxy]-4-fluorophenyl}-3-fluoropyrrolidine-1-sulfonamide]
B-RAF V600E
  DC50: 50 to 500 nM
  Dmax: 35 to 70%
B-RAF G466V
  DC50: 1 to 10 nM
  Dmax: 35 to 70%

## Cn1c(=O)n(C2CCC(=O)NC2=O)c2cccc(N3CCC(CN4CCN(c5ccc(-n6cnc7ccc(Oc8c(F)ccc(NS(=O)(=O)N9CC[C@@H](F)C9)c8C#N)cc7c6=O)cc5)CC4)CC3)c21 (stereo partly drawn) [Example 98, (3R)-N-{2-cyano-3-[(3-{4-[4-({1-[1-(2,6-dioxopiperidin-3-yl)-3-methyl-2-oxo-2,3-dihydro-1H-1,3-benzodiazol-4-yl]piperidin-4-yl}methyl)piperazin-1-yl]phenyl}-4-oxo-3,4-dihydroquinazolin-6-yl)oxy]-4-fluorophenyl}-3-fluoropyrrolidine-1-sulfonamide]
B-RAF V600E
  DC50: 50 to 500 nM
  Dmax: 35 to 70%
B-RAF G466V
  DC50: 1 to 10 nM
  Dmax: 35 to 70%

## N#Cc1c(NS(=O)(=O)N2CC[C@@H](F)C2)ccc(F)c1Oc1ccc2ncn(-c3cnc(C4(N5CCN(CC6CN(c7ccc8c(c7)CN(C7CCC(=O)NC7=O)C8=O)C6)CC5)CC4)nc3)c(=O)c2c1 (stereo partly drawn) [Example 99, (3R)-N-(2-cyano-3-{[3-(2-{1-[4-({1-[2-(2,6-dioxopiperidin-3-yl)-1-oxo-2,3-dihydro-1H-isoindol-5-yl]azetidin-3-yl}methyl)piperazin-1-yl]cyclopropyl}pyrimidin-5-yl)-4-oxo-3,4-dihydroquinazolin-6-yl]oxy}-4-fluorophenyl)-3-fluoropyrrolidine-1-sulfonamide]
B-RAF V600E
  DC50: 50 to 500 nM
  Dmax: 35 to 70%
B-RAF G466V
  DC50: 1 to 10 nM
  Dmax: 35 to 70%

## N#Cc1c(NS(=O)(=O)N2CC[C@@H](F)C2)ccc(F)c1Oc1ccc2ncn(-c3cnc(C4(N5CCN(CC6CCN(c7ccc8c(c7)CN(C7CCC(=O)NC7=O)C8=O)CC6)CC5)CC4)nc3)c(=O)c2c1 (stereo partly drawn) [Example 100, (3R)-N-(2-cyano-3-{[3-(2-{1-[4-({1-[2-(2,6-dioxopiperidin-3-yl)-1-oxo-2,3-dihydro-1H-isoindol-5-yl]piperidin-4-yl}methyl)piperazin-1-yl]cyclopropyl}pyrimidin-5-yl)-4-oxo-3,4-dihydroquinazolin-6-yl]oxy}-4-fluorophenyl)-3-fluoropyrrolidine-1-sulfonamide]
B-RAF V600E
  DC50: 50 to 500 nM
  Dmax: 35 to 70%
B-RAF G466V
  DC50: 1 to 10 nM
  Dmax: 35 to 70%

## N#Cc1c(NS(=O)(=O)N2CC[C@@H](F)C2)ccc(F)c1Oc1ccc2ncn(-c3ccc(N4CCC(CN5CC(c6ccc7c(c6)CN(C6CCC(=O)NC6=O)C7=O)C5)CC4)cc3)c(=O)c2c1 (stereo partly drawn) [Example 101, (3R)-N-{2-cyano-3-[(3-{4-[4-({3-[2-(2,6-dioxopiperidin-3-yl)-1-oxo-2,3-dihydro-1H-isoindol-5-yl]azetidin-1-yl}methyl)piperidin-1-yl]phenyl}-4-oxo-3,4-dihydroquinazolin-6-yl)oxy]-4-fluorophenyl}-3-fluoropyrrolidine-1-sulfonamide]
B-RAF V600E
  DC50: 50 to 500 nM
  Dmax: 35 to 70%
B-RAF G466V
  DC50: 1 to 10 nM
  Dmax: 35 to 70%
